Active and inactive are the calls of the source. The rule behind the calls is not given here.
Tests used:
[1] = molecular target: 3',5'-cyclic-AMP phosphodiesterase 4B (Homo sapiens, UniProt Q07343); assay: Inhibition of PDE4B (unknown origin)
[2] = Tmax in mouse at 5.5 mg/kg, ip by HPLC/MS/MS analysis; format: ADME, organism-based; conditions: in vivo
[3] = Dose normalized AUC (0 to infinity) in mouse at 5.5 mg/kg, ip by HPLC/MS/MS analysis; format: ADME, organism-based; conditions: in vivo
[4] = Dose normalized AUC (0 to last) in mouse blood at 5 mg/kg, po by HPLC/MS/MS analysis; format: ADME, organism-based; conditions: in vivo
[5] = Oral bioavailability in mouse at 5 mg/kg by HPLC/MS/MS analysis; format: ADME, organism-based; conditions: in vivo
[6] = Effect on cleaved PARP level in human NCI-H526 cells assessed as fold change at 1000 nM measured after 10 days by Western blot analysis (reference value: 1.00); format: functional; conditions: time 10 day
[7] = Effect on cleaved PARP level in human NCI-H524 cells assessed as fold change at 1000 nM measured after 14 days by Western blot analysis (reference value: 1.00); format: functional; conditions: time 14 day
[8] = Effect on cleaved PARP level in human COLO-668 cells assessed as fold change at 10 nM measured after 10 days by Western blot analysis (reference value: 1.00); format: functional; conditions: time 10 day
[9] = Effect on cleaved PARP level in human NCI-H1694 cells assessed as relative expression at 100 nM measured after 7 days by Western blot analysis (reference value: 0.25); format: functional; conditions: time 7 day
[10] = Effect on cleaved PARP level in human NCI-H1694 cells assessed as relative expression at 100 nM measured after 10 days by Western blot analysis (reference value: 0.31); format: functional; conditions: time 10 day
[11] = Effect on cleaved PARP level in human NCI-H1694 cells assessed as fold change at 10 nM measured after 10 days by Western blot analysis (reference value: 1.00); format: functional; conditions: time 10 day
[12] = Effect on cleaved PARP level in human NCI-H1694 cells assessed as fold change at 10 nM measured after 14 days by Western blot analysis (reference value: 1.00); format: functional; conditions: time 14 day
[13] = Effect on cleaved PARP level in human NCI-H69 cells assessed as relative expression at 10 nM measured after 7 days by Western blot analysis (reference value: 0.02); format: functional; conditions: time 7 day
[14] = Effect on cleaved PARP level in human NCI-H510 cells assessed as relative expression at 1000 nM measured after 10 days by Western blot analysis (reference value: 0.02); format: functional, NCI-H510A; conditions: time 10 day
[15] = Effect on cleaved PARP level in human NCI-H889 cells assessed as relative expression at 100 nM measured after 14 days by Western blot analysis (reference value: 0.94); format: functional; conditions: time 14 day
[16] = Effect on cleaved PARP level in human NCI-H146 cells assessed as relative expression at 10 nM measured after 7 days by Western blot analysis (reference value: […]); format: functional; conditions: time 7 day
[17] = Effect on cleaved PARP level in human NCI-H146 cells assessed as relative expression at 10 nM measured after 14 days by Western blot analysis (reference value: 2.42); format: functional; conditions: time 14 day
[18] = Toxicity in rat assessed as congestion in lymphoid organs measured for 28 days; conditions: in vivo, 672 h, time 28 day
[19] = system: NCI-H69; assay: Antitumor activity against human NCI-H69 cells xenografted in nude mouse assessed as mean tumor volume at 0.5 mg/kg, po administered daily measured twice weekly (reference value: 1063 +/- 161 mm3); format: functional
[20] = system: NCI-H1417; assay: Antitumor activity against human NCI-H1417 cells xenografted in nude mouse assessed as mean tumor volume at 1.5 mg/kg, po administered daily measured twice weekly (reference value: 2262 +/- 299 mm3); format: functional
[21] = system: SHP77; assay: Effect on NSE gene expression in human SHP77 cells at 1 uM measured after 4 to 7 days by qRT-PCR analysis; format: functional, cell-based; conditions: time 4-7 day
[22] = system: NCI-H526; assay: Effect on NCAM gene expression in human NCI-H526 cells at 1 uM measured after 4 days by qRT-PCR analysis; format: functional, cell-based; conditions: time 4.0 day
[23] = system: NCI-H526; assay: Effect on global H3K4me1 level in human NCI-H526 cells at 10 to 1000 nM measured after 24 hrs by Western blot analysis; format: functional, cell-based; conditions: dose 10-1000 nM
[24] = system: NCI-H526; assay: In vivo inhibition of LSD1 in human NCI-H526 cells xenografted in nude mouse assessed as change in FEZ1 gene expression administrated daily for 5 days by qRT-PCR analysis; format: functional, organism-based; conditions: dose 0.02-135 mg/kg, time 5.0 day

3',5'-cyclic-AMP phosphodiesterase 4B, sequence (Q07343 whole entry): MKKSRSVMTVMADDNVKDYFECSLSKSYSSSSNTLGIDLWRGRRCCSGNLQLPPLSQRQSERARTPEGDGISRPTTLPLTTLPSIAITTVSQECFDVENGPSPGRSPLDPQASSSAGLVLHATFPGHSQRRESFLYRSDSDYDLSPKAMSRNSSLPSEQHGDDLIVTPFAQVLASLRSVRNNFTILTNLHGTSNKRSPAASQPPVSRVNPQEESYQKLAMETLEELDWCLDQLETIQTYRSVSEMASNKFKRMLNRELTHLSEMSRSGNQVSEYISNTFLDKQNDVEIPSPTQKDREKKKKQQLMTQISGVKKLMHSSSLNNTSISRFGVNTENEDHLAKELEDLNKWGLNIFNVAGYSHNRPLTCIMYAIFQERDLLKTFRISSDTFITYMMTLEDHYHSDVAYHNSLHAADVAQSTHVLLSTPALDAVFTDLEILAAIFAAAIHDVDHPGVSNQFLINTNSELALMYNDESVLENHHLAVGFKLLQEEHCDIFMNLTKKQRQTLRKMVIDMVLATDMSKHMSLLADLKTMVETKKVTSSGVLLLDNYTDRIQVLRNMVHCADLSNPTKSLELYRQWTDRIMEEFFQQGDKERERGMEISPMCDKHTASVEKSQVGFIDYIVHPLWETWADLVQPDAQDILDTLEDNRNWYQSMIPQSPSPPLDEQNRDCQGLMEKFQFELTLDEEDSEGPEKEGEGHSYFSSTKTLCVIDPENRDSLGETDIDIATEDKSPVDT

Structure (SMILES): c1ccc([C@@H]2C[C@H]2NC2CCNCC2)cc1
- IC50 [1]: > 100 µM
- Tmax [2]: 18 min
- AUC/dose [3]: 172 kg·ng·h/mL/mg

Structure (SMILES): O=C(O)c1ccc(CN2CCC(CN[C@@H]3C[C@H]3c3ccccc3)CC2)cc1 [GSK2879552]
- AUClast/dose [4]: 171 ng·h/mL/mg/kg
- bioavailability [5]: 59.2%
- fold change (FC) [6]: 1.43
- fold change (FC) [7]: 0.77
- fold change (FC) [8]: 0.75
- Activity [9]: 0.28
- Activity [10]: 0.23
- fold change (FC) [11]: 0.88
- fold change (FC) [12]: 0.85
- Activity [13]: 0.02
- Activity [14]: 0.23
- Activity [15]: 2.36
- Activity [16]: 2.37
- Activity [17]: 1.54
- Activity [18]: Toxic
- Activity [19]: 592 mm3
- Activity [20]: 546 mm3
- Activity [21]: inactive
- Activity [22]: inactive
- Activity [23]: inactive
- inhibition [24]: Dose-Dependent Effect

Reference: ChEMBL document CHEMBL5705903, “A DNA Hypomethylation Signature Predicts Antitumor Activity of LSD1 Inhibitors in SCLC” (Cancer Cell, 2015)
